We go through 2 compounds from patent US6331642A, “Vitamin D3 analogs” (Hoffmann-La Roche Inc., priority 2000, dated 2001).

The subject of one data set is MCF-7 cells. The data set is described as follows: Pulse-exposure experiments, soft agar colony assay. It is filed as cell-based. The note with it: 4 days of exposure, 10^-7, colonies counted day 14. Here is the method: Pulse-Exposure Experiments. The MCF-7 cells were incubated in liquid culture with 10^-7 of 1,25(OH)2 D3 or 1,25(OH)2 -16-ene-5,6-trans-D3 for various duration. After incubation, these cells were carefully washed twice with PBS and viable cells were counted and plated into 24-well plates for soft agar colony assay, as previously described.
Pulse-Exposure Experiments. […] The MCF-7 cells were exposed to either 1,25(OH)2 -16-ene-5,6-trans-D3 or 1,25(OH)2 D3 for various durations, washed thoroughly, plated in soft agar, and colony numbers were enumerated on day 14 of culture.

The test system of another data set is telomerase. The data set is described as follows: Telomerase activity (TRAP assay) in HL-60 cells. It is filed as cell-based. Conditions: 4 days. Here is the method: Telomerase Activity. To detect the relative telomerase activity, telomeric repeat amplification protocol (TRAP) assays were performed. For human telomerase reverse transcriptase (hTERT), total RNAs were isolated from HL-cells which were treated with either 1,25(OH)2 D3 or 1,25(OH)2 -16-ene-5,6-trans-D3 (10^- 9 10^-8, and 10^-7 M) for 4 days with a monophasic solution of phenol and guanidine isothiocyanate. RT-PCR was performed with 1 μg of total RNA and random hexamer primers. cDNA was amplified using primers specific for the hTERT gene or the GAPDH gene, which was used as a control. The primers used for hTERT were: 5'-[…]-3' (sense) (SEQ ID NO: 1), and 5'-GGATGAAGCGGAGTCTGGA-3'-(antisense) (SEQ ID NO: 2). The thermal cycles were 94° C. for 90 seconds, followed by 33 cycles of 95° C. for 20 seconds, 68° C. for 40 seconds, and 72° C. for 30 seconds. Primers for the GAPDH gene were: 5'-CCATGGAGAAGGCTGGGG-3' (sense) (SEQ ID NO: 3), and 5'-[…]-3' (antisense) (SEQ ID NO: 4). Conditions for GAPDH amplifications were: 94° C. for 2 minutes, 26 cycles of 94° C. for 30 seconds, 62° C. for 40 seconds, 72° C. for 60 seconds, followed by 72° C. for 4 minutes. […]
Telomerase Activity. The effect of 1,25(OH)2 -16-ene-5,6-trans-D3and 1,25(OH)2 D3 (10^-9 -10^-7 M, 4 days) on telomerase activity was evaluated using the TRAP assay.

A short description of data set [1]: Serum calcium levels in vivo, mice. Set-up: species or system male Balb/c mice. The note with it: for survival: 3 weeks of study. Here is the method: Serum Calcium Levels in vivo. Twenty-eight male Balb/c mice at 8 to 9 weeks of age were maintained in pathogen-free conditions and fed a standard laboratory diet. Four mice per group were injected intraperitoneally every other day (except Saturday and Sunday) with either vitamin D3 compound or diluant (100 μl/mouse) for 3 weeks. Doses of 1,25(OH)2-16-ene-5,6-trans-D3 were: 0.1, 0.5, 1.0, and 2.0 μg. Doses of 1,25(OH)2 D3 were 0.1 μg/mouse. Control mice were injected with 100 μl of PBS. Serum calcium values were measured every week by the quantitative, colorimetric detection assay.
Serum Calcium Levels in vivo. Because hypercalcemia is a major toxicity of vitamin D3 compounds, the calcemic effects of 1,25(OH)2 D3 were compared with 1,25(OH)2 -16-ene-5,6-trans-D3.

A short description of data set [2]: Serum calcium levels, adult female rats, day 7 of oral dosing. It is filed as in vivo. The note with it: for Serum Calcium Mean: vehicle 9.65. On the procedure: Three month old adult female rats were used. […] On day 7 of dosing, animals were bled and serum calcium levels were determined. Compound was dissolved in 200 proof ethanol to produce a concentration of 100 μg/ml. […] Dose volume was calculated using the dosing group average body weight. Serial dilutions of vehicle dissolved compound were done to appropriate dosage concentrations. Blood (1.5 ml) was collected from each animal by orbital puncture under ether anesthesia on Day 7 of dosing. Blood was collected into serum separator tubes, centrifuged at 2000 rpm for 15 minutes and then serum aliquoted for calcium determinations. Serum calcium was determined by colorimetric assay.

Data set [3] relates to LNCaP cells, MCF-7 cells and HL-60 cells. The data set is described as follows: Clonogenic assay, three cell lines together. It is filed as cell-based. Here is the method:
(§1) Cell lines. The breast cancer cell line (MCF-7), prostate cancer cell line (LNCaP) and myeloid leukemia cell line (HL-60) were maintained as follows: MCF-7 cells were maintained in Dulbecco's Modified Eagle Media (DMEM) with 10% fetal calf serum (FCS); LNCaP and HL-60 were cultured in RPMI1640 with 10% FCS; All three cell lines were maintained in a 37° C. incubator containing 5% CO2.
(§2) Vitamin D3 Compounds. The vitamin D3 compounds were dissolved in absolute ethanol at 10^-3 M as stock solution, which were stored at -20° C. and protected from light. For in vitro use, compounds were diluted in DMEM or RPMI medium. For in vivo use, compounds were diluted with phosphate buffered saline (PBS). […]. Washed single-cell suspensions of cells were enumerated and plated into 24-well flat-bottomed plates with a total of […] cells/well in a volume of 400 μl/well. The feeder layer was prepared with agar that had been equilibrated at 42° C. Prior to this step, compounds were pipetted into wells. After incubation, the colonies were counted. All experiments were done at least three times using triplicate plates per experimental point.
(§3) Effect of Vitamin D3 analogs on Clonogenic Assay. […]

Data set [4] deals with myeloid leukemia cell line (HL-60). The data set is described as follows: Clonogenic assay in soft agar, HL-60. The note with it: Homo sapiens, HL-60 cells, read-out: ED50 (effective dose that inhibited 50% colony formation). It counts as cell-based. Here is the method: as §1, §2, §3
The next data set relates to ear total lipid fraction. Nature of the data set: Total lipid fraction of hamster ear. It counts as in vivo, Golden Syrian hamsters. Conditions: 4 weeks. Here is the method:
Two hundred μl of (1,25)OH2 -16-ene-5,6-trans D3 was dissolved in propylene glycol, administered daily (5 days per week) by gavage to […] Golden Syrian hamsters. The animals were sacrificed at 4 weeks and the ears were processed for histological evaluation. The area of the sebaceous glands was measured on histologically prepared cross sections of the ear by image analysis.
Also examined was the total lipid fraction from one of the ears (extraction by organic solvent followed by weighing the remaining lipid material).

Data set [5] relates to breast cancer cell line (MCF-7). The data set is described as follows: Clonogenic assay in soft agar, MCF-7. It is filed as cell-based. Conditions: Homo sapiens, MCF7, MCF-7 cells, read-out: ED50 (effective dose that inhibited 50% colony formation). On the procedure: as §1, §2, §3

For the compound `C=C1/C(=C\C=C2/CCC[C@]3(C)[C@@H]([C@H](C)CCCC(C)(C)O)CC[C@@H]23)C[C@@H](O)C[C@@H]1O` [1,25(OH)2 D3, reference compound], the clonogenic cells inhibited entry in the data set on MCF-7 cells is “thirty”. Also, in the data set with telomerase (10^-7 M), the telomerase activity entry was “markedly decreased”. The hypercalcemia entry in data set [1] (0.1 μg/mouse i.p. every other day, 3 weeks) was “all hypercalcemic”. The serum calcium level result in data set [1] (0.1 μg/mouse i.p. every other day, 3 weeks, normal 8.5-10.5 mg/dl) is given as “approximately 12 mg/dl”. Besides, the survival entry in data set [1] was “All mice survived”.

Turning to `C=C1/C(=C/C=C2\CCC[C@]3(C)C([C@H](C)CCCC(C)(C)O)=CC[C@@H]23)C[C@@H](O)C[C@@H]1O` [1,25(OH)2-16-ene-5,6-trans-D3, 1,25-Dihydroxy-16-ene-5,6-trans-cholecalciferol], in the data set on MCF-7 cells, the clonogenic cells inhibited entry is on record as “Approximately forty”. In addition, the “Serum Calcium Mean” value stood at 10.64 mg/dL in data set [2] (0.5 μg/kg/day oral), 10.06 mg/dL in data set [2] (1 μg/kg/day oral), 9.92 mg/dL in data set [2] (1.5 μg/kg/day oral) and 9.77 mg/dL in data set [2] (2 μg/kg/day oral). Besides, the serum calcium levels result in data set [2] (up to 2 μg/kg/day oral) was “within the normal range”. Moreover, in data set [3] (10^-11 to 10^-7 M), the “inhibition of clonal proliferation” value was “effective in inhibition of clonal proliferation of the three cell lines in a dose-dependent manner”. The “potency relative to 1,25(OH)2 D3 (fold more potent)” value in data set [3] (vs 1,25(OH)2 D3, about) is 10-100 fold. Further, the telomerase activity result in the data set with telomerase (10^-9 M) is “markedly decreased”. In addition, the figures for the IC50 in data set [4] and in data set [5] were 0.03 nM and 4.3 nM, respectively. In addition, the “total lipid fraction, % Change from Control” value is reported as -26% in the data set with ear total lipid fraction (0.01 μg/day gavage), -25% with ear total lipid fraction (0.1 μg/day gavage), -37% in the data set with ear total lipid fraction (1 μg/day gavage) and -56% in the data set on ear total lipid fraction (10 μg/day gavage). Further, the serum calcium level in data set [1] (0.1-2.0 μg/mouse i.p. every other day, 3 weeks, control mice 8-9 mg/dl) fell in the range of 8 to 10 mg/dL. The “serum calcium level compared with control mice” value in data set [1] (0.1-2.0 μg/mouse i.p., 3 weeks) was “almost the same calcium level”. Besides, in data set [1], the survival entry is listed as “All mice survived”.
